Test results as given in patent US20170143712A1, “Methods of Treating Cancers, Immune and Autoimmune Diseases, and Inflammatory Diseases Based on BTK Occupancy and BTK Resynthesis Rate” (Acerta Pharma B.V., priority 2014, published 2017).
Where two headings read alike, the source gives them in different places.

Columns and labels:
B cell receptor (BCR) [1] = test: Ex vivo anti-IgM induced CD86 and CD69 expression on splenocyte B cells after oral dosing of mice; type: in vivo, mouse; conditions: single oral 25 mg/kg; for inhibition at 25 mg/kg: Mus musculus, B-cell, 3-24 hours, read-out: CD69 % inhibition over the entire time course; for inhibition of ex vivo anti-IgM induced responses in B cells: 3 hours post-dose
Protocol: (§1) B cell stimulation through the B cell receptor (BCR) with antibodies (e.g., anti-IgM) results in the activation of BTK and subsequent cellular changes, including the upregulation of various cell surface receptors. Measuring the inhibition of BCR induced protein phosphorylation downstream of Btk, and the inhibition of surface receptor upregulation provides a way to assess the Btk inhibitor activity. In the first study, the BTK target occupancy in splenocytes was measured over time, providing evidence for BTK resynthesis in the tissue compartment of interest.
(§2) Mice were sacrificed at 3, 6, 12, 18, and 24 hours after treatment with the BTK inhibitors (FIG. 27A, FIG. 27B, and FIG. 27C). Spleens were harvested and splenocyte preparations were made for flow cytometry analysis of B cell functions. Fresh or cryopreserved splenocytes were cultured with a-IgM to stimulate BCR, and the up-regulation of CD69, an early functional marker of B cell activation, was analyzed by flow cytometry.

S6 phosphorylation = test: Basal and anti-IgM induced S6 phosphorylation in splenocytes after oral dosing of mice; type: in vivo, mouse; conditions: single oral 25 mg/kg; rank order Formula (II)>ibrutinib>Formula (XVII)
Protocol: as §1, §2
A downstream marker of BTK activity, S6 phosphorylation, was also monitored in this study. […] In a second study, the effects of another inhibitor of BTK that covalently inactivates the kinase, Formula (XXI), were compared with Formula (II) to evaluate the return of BCR function and B cell activation, as illustrated in FIG. 29A and FIG. 29B.

BTK = target: T1, BTK (Mus musculus, UniProt P35991); test: BTK target occupancy in mouse splenocytes after a single oral dose; type: in vivo; conditions: single oral 25 mg/kg, 3 hours
T1 construct: from tissue; host or cells: mouse spleen (splenocytes), animals dosed in vivo; A19 used DBA/1 mice with collagen-induced arthritis

B cell receptor (BCR) [2] = test: Ex vivo anti-IgM induced CD86 and CD69 expression on splenocyte B cells after oral dosing of mice; type: in vivo; conditions: Mus musculus, single oral 25 mg/kg, 3-24 hours, read-out: CD86 % inhibition over the entire time course
psoriasis = conditions: tyrosine kinase inhibitors used for malignancies; cited from earlier work
[3] = system: established type II collagen-induced arthritis (CIA) in DBA/1 mice; test: 14-day mouse established type II collagen-induced arthritis (CIA), PO QD (Example 10); type: in vivo; conditions: for AUC (All Paws) - Corrected for Initial Score / Change in Body Weight (g) / Histopathology Summed Score Knees / Histopathology Summed Score Paws / Histopathology Summed Score Six-Joints / Paw Score AUC (All Paws): mean(SE); for disease-induced body weight loss (percent change from baseline) vs vehicle controls / arthritis scores measured daily vs vehicle controls: p<0.05 on the days printed; for arthritis scores measured daily vs vehicle controls: all paws
Protocol: Prior to dosing, the candidate anti-inflammatory agents were reconstituted either by vortexing or stirring. The candidate anti-inflammatory agents were administered to the DBA/1 mice daily (QD) by the oral (PO) route.
Immunization with heterologous type II collagen (CII) induces arthritis in mice of the DBA/1 strain, which is genetically susceptible to this disease. To develop an experimental model of autoimmunity more adequate for the study of human rheumatoid arthritis (RA), male DBA/1 mice were injected intradermally (ID) with bovine type II collagen to induce arthritis as reported by Trentham et al (Trentham D E, Townes A S, Kang A H Autoimmunity to type II collagen: an experimental model of arthritis. J. Exper. Med. 1977, 146:857-868) and Bendele A (Bendele A, Animal models of rheumatoid arthritis. J. Musculoskelet. Neuronal Interact. 2001, 1(4):377-85). Male DBA/1 mice (n=114) that were 6-7 weeks old and weighed approximately 18-27 grams (mean 22 g) at enrollment (arthritis day 1) were obtained from Taconic Farms, Inc. The male DBA/1 mice were at least 6 weeks old at time of first immunization and were housed 3-5/cage in shoe-box polycarbonate cages with wire tops, wood chip bedding, and suspended food and water bottles. These animals were identified by a distinct number of ink marks at the base of the tail delineating animal number. After enrollment, all cages were labeled with protocol number, group number, and animal numbers.
The male DBA/1 (n=10/group for arthritis) were anaesthetized with Isoflurane, shaved at the base of the tail, and injected intradermally with 150 μL of Freund's Complete Adjuvant (Difco, Detroit, Mich.) containing bovine type II collagen (BBP, batch #7) (1 mg/ml) at the base of the tail on day 0 and again on day 21. […] Randomization was done after swelling was obviously established in at least one paw (score of 1) and attempts were made to ensure approximately equal mean scores of 0.5-1 across groups at the time of enrollment. […] The male DBA/1 mice were terminated on arthritis day 14 (3 hours post-dose).
Efficacy evaluation of the administered anti-inflammatory agents was based on animal body weights, clinical arthritis scores, arthritis scores expressed as area under the curve (AUC), and histopathology on fore paws, hind paws, and knees. Histopathology results were expressed as 4 paws, knees only, or 6 joints (knees included). Day 13 was used as the endpoint for analysis of body weight change since the male DBA/1 mice were fasted overnight prior to necropsy on day 14.

[4] = system: BCR signaling through BTK; test: Anti-IgM induced CD86 and CD69 on splenocyte B cells of CIA mice; type: in vivo, mouse; conditions: splenocytes 3 hr after last dosing on day 14
Protocol: FIG. 45 illustrates changes in a functional measure of BCR signalling through the CD86 marker. Mouse splenocytes were isolated from spleens from mice that were part of the mouse CIA study semi-therapeutic protocol, 3 hr after the last dosing on day 14 of the treatment and cryopreserved. After thawing, inhibition of anti-IgM-induced PD markers CD86 and CD69 on mouse splenocyte B cells were measured. Error bars represent the standard deviation for the 3 sets of splenocytes analyzed.
FIG. 46 illustrates changes in a functional measure of BCR signalling through the CD69 marker. Mouse splenocytes were isolated from spleens from mice that were part of the mouse CIA study semi-therapeutic protocol, 3 hr after the last dosing on day 14 of the treatment and cryopreserved. After thawing, inhibition of anti-IgM-induced PD markers CD86 and CD69 on mouse splenocyte B cells were measured. Error bars represent the standard deviation for the 3 sets of splenocytes analyzed.
Inhibition of the BCR signaling through BTK was evaluated by ex vivo stimulation of splenocytes using IgM and evaluation of CD86 and CD69 as functional responses of BCR stimulation.

T1 sequence (P35991 whole entry): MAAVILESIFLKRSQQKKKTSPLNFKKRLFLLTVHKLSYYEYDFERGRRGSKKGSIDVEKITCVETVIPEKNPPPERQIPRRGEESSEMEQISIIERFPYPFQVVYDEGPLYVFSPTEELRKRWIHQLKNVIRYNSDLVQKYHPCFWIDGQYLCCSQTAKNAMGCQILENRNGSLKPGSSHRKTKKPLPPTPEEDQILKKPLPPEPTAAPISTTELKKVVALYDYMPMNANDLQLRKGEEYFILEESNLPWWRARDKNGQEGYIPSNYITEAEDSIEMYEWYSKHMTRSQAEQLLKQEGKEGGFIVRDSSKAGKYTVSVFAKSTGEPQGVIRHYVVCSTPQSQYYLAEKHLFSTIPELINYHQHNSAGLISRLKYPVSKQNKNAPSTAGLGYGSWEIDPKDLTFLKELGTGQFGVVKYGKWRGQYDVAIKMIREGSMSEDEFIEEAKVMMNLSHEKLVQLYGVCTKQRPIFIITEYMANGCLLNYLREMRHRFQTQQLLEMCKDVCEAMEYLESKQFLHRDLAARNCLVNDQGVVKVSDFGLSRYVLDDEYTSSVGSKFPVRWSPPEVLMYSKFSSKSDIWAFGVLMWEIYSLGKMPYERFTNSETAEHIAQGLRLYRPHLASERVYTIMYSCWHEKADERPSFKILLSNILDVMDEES

## C=CC(=O)Nc1cccc(Nc2nc(Nc3ccc(OCCOC)cc3)ncc2F)c1 [Formula (XVII), N-(3-((5-fluoro-2-((4-(2-methoxyethoxy)phenyl)amino)pyrimidin-4-yl)amino)phenyl)acrylamide]
B cell receptor (BCR) [1]
  inhibition at 25 mg/kg: 44.8%
  inhibition of ex vivo anti-IgM induced responses in B cells: incomplete inhibition
S6 phosphorylation
  basal state and anti-IgM induced S6 phosphorylation: inhibited both basal state and anti-IgM induced S6 phosphorylation
BTK
  BTK target occupancy in splenocytes: incomplete BTK target occupancy
B cell receptor (BCR) [2]
  inhibition at 25 mg/kg: 28.1%

## Cc1ccc(C(=O)Nc2ccc(CN3CCN(C)CC3)c(C(F)(F)F)c2)cc1C#Cc1cnc2cccnn12 [Ponatinib]
psoriasis
  effect on psoriasis / skin in patients: induces an almost psoriasis-like disease

## Cc1nc(Nc2ncc(C(=O)Nc3c(C)cccc3Cl)s2)cc(N2CCN(CCO)CC2)n1 [dasatinib]
psoriasis
  effect on psoriasis / skin in patients: has not been reported to improve psoriasis

## C=CC(=O)N1CCC[C@@H](n2nc(-c3ccc(Oc4ccccc4)cc3)c3c(N)ncnc32)C1 [ibrutinib, (R)-1-(3-(4-amino-3-(4-phenoxyphenyl)-1H-pyrazolo[3,4-d]pyrimidin-1-yl)piperidin-1-yl)prop-2-en-1-one]
B cell receptor (BCR) [1]
  inhibition at 25 mg/kg: 83.4%
  inhibition of ex vivo anti-IgM induced responses in B cells: near complete inhibition
B cell receptor (BCR) [1]; persisting for 24 hours
  inhibition of CD86 and CD69 expression: partial inhibition
S6 phosphorylation
  basal state and anti-IgM induced S6 phosphorylation: inhibited both basal state and anti-IgM induced S6 phosphorylation
[3]; 1 mg/kg PO QD
  AUC (All Paws) - Corrected for Initial Score: 20.81(4.47)
  Change in Body Weight (g): −1.28(0.69) g
  Histopathology Summed Score Knees: ‡10.15(1.16)
  Histopathology Summed Score Paws: 10.30(1.84)
  Histopathology Summed Score Six-Joints: 10.25(1.36)
  Paw Score AUC (All Paws): 28.29(5.18)
  disease-induced body weight loss (percent change from baseline) vs vehicle controls: significantly inhibited toward normal
[3]; 1 mg/kg PO QD, prophylactic paws
  daily arthritis scores vs vehicle controls: significantly reduced toward normal
[3]; 5 mg/kg PO QD
  six-joint histopathology, reduction of summed scores vs vehicle controls: 79%
  total body weight loss from enrollment to study termination: significantly inhibited
  arthritis scores measured daily vs vehicle controls: significantly reduced toward normal
  AUC (All Paws) - Corrected for Initial Score: *3.68(2.18)
  Change in Body Weight (g): *0.45(0.65) g
  Histopathology Summed Score Paws: *3.63(1.07)
  Histopathology Summed Score Six-Joints: *3.11(0.95)
  disease-induced body weight loss (percent change from baseline) vs vehicle controls: significantly inhibited toward normal
[3]; 5 mg/kg PO QD, prophylactic paws
  daily arthritis scores vs vehicle controls: significantly reduced toward normal
[3]; 25 mg/kg PO QD
  six-joint histopathology, reduction of summed scores vs vehicle controls: 94%
  total body weight loss from enrollment to study termination: significantly inhibited
  arthritis scores measured daily vs vehicle controls: significantly reduced toward normal
  AUC (All Paws) - Corrected for Initial Score: *−4.09(1.58)
  Change in Body Weight (g): *0.83(0.62) g
  Histopathology Summed Score Knees: *0.65(0.29)
  Histopathology Summed Score Paws: *0.91(0.48)
  Histopathology Summed Score Six-Joints: *0.83(0.30)
  Paw Score AUC (All Paws): *3.06(1.08)
  disease-induced body weight loss (percent change from baseline) vs vehicle controls: significantly inhibited toward normal
[3]; 25 mg/kg PO QD, prophylactic paws
  daily arthritis scores vs vehicle controls: significantly reduced toward normal
[3]; 25 mg/kg PO QD, therapeutic paws
  daily arthritis scores vs vehicle controls: significantly reduced toward normal
[3]; all dose groups PO QD
  spleen weights compared to vehicle controls: not significantly affected
[4]
  BCR-mediated signaling (anti-IgM induced CD86 and CD69): dose-responsive decreases in BCR-mediated signaling
B cell receptor (BCR) [2]
  inhibition at 25 mg/kg: 62.9%

## Cc1ccc(NC(=O)c2ccc(CN3CCN(C)CC3)cc2)cc1Nc1nccc(-c2cccnc2)n1 [imatinib]
psoriasis
  effect on psoriasis / skin in patients: may cause worsening of psoriasis
